{"source": "patent US9364476B2", "about": "“Methods of treating a Bruton's Tyrosine Kinase disease or disorder” (Celgene Avilomics Research, Inc., priority 2011, dated 2016)", "key": {"[1]": {"assay": "CLL expansion cohort C: DLT", "type": "in vivo, human", "settings": "24 subjects, 750 mg po QD", "experimental": "(§1) 24 subjects were enrolled into the CLL expansion cohort C and were assessed for safety, tolerability, DLT, PK, PD and disease response. Each subject was evaluated prior to enrollment to ensure that minimum hematological criteria were satisfied: […]"}, "[2]": {"test_system": "Relapsed and/or refractory CLL/SLL", "assay": "CLL expansion cohort C: disease response", "type": "in vivo, human", "experimental": "After completion of observation for DLTs in Example 1, the accumulated safety, PK, and PD data from Example 1 were evaluated to select a preliminary recommended Phase 2 dose for administration to additional subjects enrolled into an independent and non-randomized diagnosis-specific expansion cohorts in the Diagnosis Specific Expansion Cohorts study. • Cohort A: Relapsed and/or refractory diffuse large B-cell lymphoma (DLBCL); • Cohort B: Relapsed and/or refractory indolent and mantle B-cell lymphomas, Waldenstrom's macroglobulinemia, and other B lymphoproliferative disorders of uncertain malignant potential (at least 10 of the 24 enrollment slots will be reserved for subjects with mantle cell lymphoma); and • Cohort C: Relapsed and/or refractory CLL/SLL.\nas §1"}, "[3]": {"assay": "Plasma API levels by LC-MS-MS (PK)", "type": "in vivo, human", "experimental": "Plasma API levels were assessed by LC-MS-MS."}, "[4]": {"assay": "Solubility of the API", "type": "physicochemical"}, "[5]": {"test_system": "B-NHL patients", "assay": "Dose escalation study: lymph node size in B-NHL patients", "type": "in vivo, human", "settings": "dose escalation cohorts", "description": "The doses indicated refer to the patient's starting dose. The numbers at the top of each bar indicate the number of cycles completed for each subject as of the last available lymph node measurement."}, "[6]": {"test_system": "CLL patients", "assay": "Dose escalation study: lymph node size and absolute lymphocyte count in CLL patients", "type": "in vivo, human", "description": "FIG. 6 depicts the change in lymph node size in CLL patients with available lymph node assessment, twelve (12) of whom are from cohorts 1-5. These patients have experienced some degree of lymph node reduction: 2/12 patients have experienced nodal response (>50% reduction); 6/12 patients have experienced between 25 and 50% reduction over the treatment and follow-up periods indicated in the figure. The doses indicated refer to the patient's starting dose. The numbers at the top of each bar indicate the number of cycles completed for each subject as of the last available lymph node measurement.\nFIG. 7 depicts the change in absolute lymphocyte count (ALC) in CLL patients. As of Sep. […] All CLL subjects with follow-up through cycle 1 at all dose levels are shown. Subjects treated with 750 mg or higher are indicated under the dotted line."}, "[7]": {"test_system": "relapsed or refractory B-NHL, CLL/SLL, or WM", "assay": "Dose escalation study: disease progression and treatment duration", "type": "in vivo, human", "experimental": "Intrapatient dose escalation was allowed.\nSubjects with CLL experiencing nodal response with lymphocytosis (which may be related to drug-mediated lymphocyte redistribution) were also eligible for additional treatment. Subjects with WM with increasing serum Immunoglobulin M (“IgM”) levels at the end of the first 28-day cycle were also evaluated for lymphadenopathy/organomegaly and marrow infiltration. Investigators were permitted to use judgment in determining whether to continue these subjects into the second 28-day cycle if there was a discordant response between increased IgM and stable or decreased lymphadenopathy/organomegaly and marrow infiltration."}, "[8]": {"assay": "Environmental stability (heat, acid, base)", "type": "physicochemical"}, "[9]": {"settings": "eleven patients from Expansion Cohort C, 750 mg QD"}, "[10]": {"settings": "twelve CLL patients from cohorts 1-5 with lymph node assessment"}}, "note": "Values joined by “and” are separate entries in the source; they are usually repeats but may differ in a detail not shown here. Identical values can stand only once. Like-named read-outs stand apart in the source and are kept apart here."}
{"smiles": "C=CC(=O)Nc1cccc(Nc2nc(Nc3ccc(OCCOC)cc3)ncc2F)c1.O=S(=O)(O)c1ccccc1", "note": "[N-(3-(5-fluoro-2-(4-(2-methoxyethoxy)phenylamino)pyrimidin-4-ylamino)phenyl)acrylamide besylate]", "values": [{"measurement": "patients showing no DLT", "setting": "[1]", "result": "Twenty-four"}, {"measurement": "progressive disease after", "setting": "[2]; cohort C, 750 mg po QD, one patient", "result": 73, "unit": "days"}, {"measurement": "patients showing no disease progression", "setting": "[2]; cohort C, 24 subjects, 750 mg po QD", "result": "twenty-three"}, {"measurement": "CLL patients with between 25 and 50% reduction of lymph node size", "setting": "[2]; [9]", "result": "6/11"}, {"measurement": "CLL patients with nodal response (>50% reduction of lymph node size)", "setting": "[2]; [9]", "result": "1/11"}, {"measurement": "CLL patients with early increases (≧25%) in absolute lymphocyte counts (ALC)", "setting": "[2]; of eighteen (18) patients in Expansion Cohort C, 750 mg QD, first 28-day cycle", "result": 17, "unit": "patients"}, {"measurement": "PK exposure (AUClast)", "setting": "[3]; Day 1 to 15, once daily oral dosing", "result": "linear with no accumulation"}, {"measurement": "PK", "setting": "[3]; once daily oral dosing", "result": "predictable with no accumulation"}, {"measurement": "solubility", "setting": "[4]; ethanol, organic solvent or mixture, read-out: solubility in ethanol", "result": "~10000", "unit": "µg/mL"}, {"measurement": "solubility", "setting": "[4]; water, read-out: solubility in water", "result": "~160", "unit": "µg/mL"}, {"measurement": "B-NHL patients with decreased lymph node size", "setting": "[5]", "result": "Six"}, {"measurement": "CLL patients with early increases (≧25%) in absolute lymphocyte counts (ALC)", "setting": "[6]; of fifteen (15) CLL patients in cohorts 1-6A/B, first 28-day cycle, as of Sep. 11, 2012", "result": 11, "unit": "patients"}, {"measurement": "CLL patients with between 25 and 50% reduction of lymph node size", "setting": "[6]; [10]", "result": "6/12"}, {"measurement": "CLL patients with nodal response (>50% reduction of lymph node size)", "setting": "[6]; [10]", "result": "2/12"}, {"measurement": "DLT or disease progression", "setting": "[7]; cohort 1 (125 mg), three CLL subjects", "result": "None of the subjects showed DLT or disease progression"}, {"measurement": "progressive disease after", "setting": "[7]; cohort 1 (starting 125 mg QD), three CLL patients, one value per patient, listed as API, besylate", "result": "187 days and 319 days and 332 days"}, {"measurement": "progressive disease after", "setting": "[7]; cohort 2 (250 mg QD), DLBCL subject", "result": 28, "unit": "days"}, {"measurement": "subjects showing no DLT or disease progression", "setting": "[7]; cohort 2 (250 mg), three subjects", "result": "Two of the three"}, {"measurement": "progressive disease after", "setting": "[7]; cohort 3 (400 mg QD), two CLL patients, one value per patient, listed as API, besylate", "result": "168 days and 231 days"}, {"measurement": "patients showing no DLT or disease progression", "setting": "[7]; cohort 3 (400 mg), six subjects, one MZL, two CLL", "result": "Three"}, {"measurement": "progressive disease after", "setting": "[7]; cohort 4 (625 mg QD), DLBCL patient", "result": 33, "unit": "days"}, {"measurement": "progressive disease after", "setting": "[7]; cohort 4 (625 mg QD), mantle cell lymphoma patient", "result": 105, "unit": "days"}, {"measurement": "progressive disease after", "setting": "[7]; cohort 4 (625 mg QD), two follicular lymphoma patients, one value per patient, listed as API, besylate", "result": "56 days and 212 days"}, {"measurement": "patients showing no DLT or disease progression", "setting": "[7]; cohort 4 (625 mg), six subjects, follicular lymphoma", "result": "One"}, {"measurement": "progressive disease after", "setting": "[7]; cohort 5 (750 mg QD), MLBCL patient", "result": 64, "unit": "days"}, {"measurement": "patients showing no DLT or disease progression", "setting": "[7]; cohort 5 (750 mg), six subjects", "result": "Five"}, {"measurement": "patients showing no DLT or disease progression", "setting": "[7]; cohorts 6A and 6B (1000 mg QD / 375 mg BID), twelve subjects, as of Sep. 11, 2012", "result": "eleven"}, {"measurement": "environmental instabilities (i.e. heat, acid, base) that require special handling", "setting": "[8]", "result": "no environmental instabilities"}]}
